“Also recorded” adds a separate entry of the source.
Tests used:
[1] = tested on: rat OPCs with normal UBE3A levels; assay: Proliferation of rat OPCs with normal UBE3A levels; type: cell-based
[2] = tested on: iOPCs expressing Cas9 and a sgRNA targeting UBE3A; assay: EdU incorporation in iOPCs with CRISPR/Cas9 UBE3A depletion (Lenti-sgUBE3A #1-3); type: cell-based, human; settings: 10 μM; any of the sgRNAs
Procedure: The sgRNAs targeting UBE3A, and negative control were obtained from Applied Biological Materials Inc. Targeting sgRNA sequences against UBE3A are: sgRNA1, […]; sgRNA2, […]; sgRNA3, […]. These sgRNAs were integrated into the backbone of the negative control pLenti-U6-sgRNA-SFFV-Cas9-2A-Puro. All constructs were packaged into lentiviruses and concentrated by Lenti-X Concentrator (Takara Bio #631231). In each experiment, 5-10 μl of concentrated virus was administered into ˜70% confluent iOPCs cultures in 6-well plates. One day post-lentiviral transduction, iOPC cultures were treated with approximately 5 μg/ml Puromycin to isolate those iOPCs which are expressing Cas9/sgRNAs. Following a day of selection, the iOPCs were then seeded on gelatin-coated coverslips placed in 24-well plates at a density of 100,000 cells per well. After another day allowed for cell stabilization, treatment with either the vehicle control (DMSO), AC-186, DPN, or LY500307 commenced at a standard concentration of 10 μM. A final 24-hour period after this treatment saw the cells exposed to […] for three hours, preparing them for subsequent immunofluorescence staining.
The EdU labeling kit from ThermoFisher Scientific (#C10637) was used to trace cell proliferation by incubating iOPCs with 2 μM EdU for three hours before fixation. Following EdU incorporation, cells were fixed in 4% paraformaldehyde, blocked with normal serum, and stained with primary antibodies, Rabbit anti-Ki67 and Mouse anti-UBE3A. These steps were conducted according to the manual of the labeling kit and also detailed immunofluorescence staining protocols described below, to ensure specific detection of the proliferation marker Ki67 and the ubiquitin-protein ligase UBE3A in the cells for subsequent imaging analysis.

[3] = tested on: untreated iOPCs; assay: Baseline Ki67 expression in untreated iOPCs (normal UBE3A levels); type: cell-based, human; settings: 10 μM, 24 hours
Description: FIG. 19A: Schematic illustrating the process of generating iPSC-derived oligodendrocyte lineage cells using a refined protocol from Vulakh and Yang, […] (Vulakh, G., and Yang, X. (2023). Characterizing the Neuron-Glial Interactions by the Co-cultures of Human iPSC-Derived Oligodendroglia and Neurons. Methods Mol. Biol. 2683. 10.1007/978-1-0716-3287-1_9). The human iPSCs employed in this study were the extensively characterized KOLF2.J1 control reference line, sourced from the INDI (Ramos, D. M., Skarnes, W. C., Singleton, A. B., Cookson, M. R., and Ward, M. E. (2021). Tackling neurodegenerative diseases with genomic engineering: A new stem cell initiative from the NIH. Neuron 109, 1080-1083. 10.1016/j.neuron.2021.03.022). Initially, iPSCs are converted into neural precursor cells (iNPCs, marked by Nestin) through SMAD inhibition in the first week. These iNPCs are then induced into oligodendrocyte precursor cells (iOPCs, marked by PDGFRa and A2B5) by the second week. […] FIG. 19H: Baseline effects of AC-186 on OPC proliferation analyzed by Ki67 expression in untreated iOPCs exposed to vehicle or drugs (AC-186 or DPN; 10 μM, 24 hours), with densitometric signals of immunoblotting normalized to GAPDH. […]

SMILES	effect on OPCs with normal UBE3A levels [1]	number of EdU+ cells [2]	Ki67 expression, baseline [3]
N#CC(Cc1ccc(O)cc1)c1ccc(O)cc1 (stereo not drawn) [DPN, diarylpropionitrile, reference compound]	neither AC-186 nor DPN affected	increased the number of EdU+ cells	neither AC-186 nor DPN affected; also recorded: No significant changes
Oc1ccc(C2(c3ccccc3F)CCC(F)(F)CC2)cc1 [AC-186]	neither AC-186 nor DPN affected	increased the number of EdU+ cells	neither AC-186 nor DPN affected; also recorded: No significant changes
